Test results: PMC2219267 (The Journal of General Physiology, 1996)

Biological target: T1, band 3 (Homo sapiens, UniProt P02730)
T1 sequence (P02730 1-911): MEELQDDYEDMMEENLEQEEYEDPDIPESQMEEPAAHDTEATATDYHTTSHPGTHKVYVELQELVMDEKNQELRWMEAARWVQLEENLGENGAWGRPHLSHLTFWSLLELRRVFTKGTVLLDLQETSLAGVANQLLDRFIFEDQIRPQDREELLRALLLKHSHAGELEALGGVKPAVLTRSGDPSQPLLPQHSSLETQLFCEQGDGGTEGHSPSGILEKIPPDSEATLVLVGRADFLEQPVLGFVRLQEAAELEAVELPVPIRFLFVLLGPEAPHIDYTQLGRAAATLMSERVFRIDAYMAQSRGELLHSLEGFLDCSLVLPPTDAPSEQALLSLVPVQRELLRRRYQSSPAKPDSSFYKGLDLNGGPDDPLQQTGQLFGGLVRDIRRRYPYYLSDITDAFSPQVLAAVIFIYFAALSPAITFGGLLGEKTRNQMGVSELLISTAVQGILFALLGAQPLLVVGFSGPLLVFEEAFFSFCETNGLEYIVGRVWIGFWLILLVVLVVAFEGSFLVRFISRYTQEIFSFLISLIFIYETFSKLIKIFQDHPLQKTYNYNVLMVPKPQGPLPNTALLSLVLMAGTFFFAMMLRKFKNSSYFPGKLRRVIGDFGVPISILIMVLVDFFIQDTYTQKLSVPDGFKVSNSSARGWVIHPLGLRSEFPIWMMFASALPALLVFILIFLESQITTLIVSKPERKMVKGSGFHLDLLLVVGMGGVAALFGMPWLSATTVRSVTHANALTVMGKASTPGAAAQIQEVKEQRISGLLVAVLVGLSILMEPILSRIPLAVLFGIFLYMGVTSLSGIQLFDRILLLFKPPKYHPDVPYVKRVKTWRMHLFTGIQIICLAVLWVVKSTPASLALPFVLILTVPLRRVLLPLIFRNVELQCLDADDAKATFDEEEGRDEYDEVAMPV
Assay: 36Cl exchange flux inhibition in red blood cells, Dixon plots
Format: cell-based
Details: for ID50 for iodide in the medium with low Cl- concentration: 0°C; for DS·Clo (Dixon slope times [Clo]) / Dixon slope (DS) for Io inhibition of Cl- exchange / High/low: DS·Clo at the highest [Clo] divided by that at the given [Clo]: sucrose

[I-].[K+] [iodide, potassium iodide]
ID50 for iodide in the medium with low Cl- concentration (exp 60, pHo 7.2, Hepes, Cli 129 mM, low Clo 2.0 mM): 2.77 mM
DS·Clo (Dixon slope times [Clo]) (exp 60, pHo 7.2, Clo 2 mM): 0.0823
Dixon slope (DS) for Io inhibition of Cl- exchange (exp 60, pHo 7.2, Clo 2 mM): 0.0412
High/low: DS·Clo at the highest [Clo] divided by that at the given [Clo] (exp 60, pHo 7.2, Clo 2 mM): 4.69
DS·Clo (Dixon slope times [Clo]) (exp 60, pHo 7.2, Clo 150 mM): 0.386
Dixon slope (DS) for Io inhibition of Cl- exchange (exp 60, pHo 7.2, Clo 150 mM): 0.00257
ID50 for iodide in the medium with low Cl- concentration (exp 60, pHo 10.7, CHES, Cli 129 mM, low Clo 2.0 mM): 12.9 mM
DS·Clo (Dixon slope times [Clo]) (exp 60, pHo 10.7, Clo 2 mM): 0.1169
Dixon slope (DS) for Io inhibition of Cl- exchange (exp 60, pHo 10.7, Clo 2 mM): 0.0584
High/low: DS·Clo at the highest [Clo] divided by that at the given [Clo] (exp 60, pHo 10.7, Clo 2 mM): 1.79
DS·Clo (Dixon slope times [Clo]) (exp 60, pHo 10.7, Clo 150 mM): 0.2096
Dixon slope (DS) for Io inhibition of Cl- exchange (exp 60, pHo 10.7, Clo 150 mM): 0.0014
ID50 for iodide in the medium with low Cl- concentration (exp 60a, pHo 7.2, Hepes, Cli 149 mM, low Clo 1.0 mM): 2.44 mM
DS·Clo (Dixon slope times [Clo]) (exp 60a, pHo 7.2, Clo 1 mM): 0.0509
Dixon slope (DS) for Io inhibition of Cl- exchange (exp 60a, pHo 7.2, Clo 1 mM): 0.0509
High/low: DS·Clo at the highest [Clo] divided by that at the given [Clo] (exp 60a, pHo 7.2, Clo 1 mM): 6.67
DS·Clo (Dixon slope times [Clo]) (exp 60a, pHo 7.2, Clo 150 mM): 0.339
Dixon slope (DS) for Io inhibition of Cl- exchange (exp 60a, pHo 7.2, Clo 150 mM): 0.00226
ID50 for iodide in the medium with low Cl- concentration (exp 60a, pHo 10.7, CHES, Cli 149 mM, low Clo 2.0 mM): 22.6 mM
DS·Clo (Dixon slope times [Clo]) (exp 60a, pHo 10.7, Clo 2 mM): 0.1078
Dixon slope (DS) for Io inhibition of Cl- exchange (exp 60a, pHo 10.7, Clo 2 mM): 0.0539
High/low: DS·Clo at the highest [Clo] divided by that at the given [Clo] (exp 60a, pHo 10.7, Clo 2 mM): 2.13
DS·Clo (Dixon slope times [Clo]) (exp 60a, pHo 10.7, Clo 150 mM): 0.2300
Dixon slope (DS) for Io inhibition of Cl- exchange (exp 60a, pHo 10.7, Clo 150 mM): 0.00153
ID50 for iodide in the medium with low Cl- concentration (exp 61, pHo 11.6, CAPS, Cli 131 mM, low Clo 50 mM): 34.9 mM
DS·Clo (Dixon slope times [Clo]) (exp 61, pHo 11.6, Clo 50 mM): 0.2858
Dixon slope (DS) for Io inhibition of Cl- exchange (exp 61, pHo 11.6, Clo 50 mM): 0.00572
High/low: DS·Clo at the highest [Clo] divided by that at the given [Clo] (exp 61, pHo 11.6, Clo 50 mM): 0.94
DS·Clo (Dixon slope times [Clo]) (exp 61, pHo 11.6, Clo 150 mM): 0.2682
Dixon slope (DS) for Io inhibition of Cl- exchange (exp 61, pHo 11.6, Clo 150 mM): 0.00179
ID50 for iodide in the medium with low Cl- concentration (exp 61a, pHo 11.6, CAPS, Cli 144 mM, low Clo 28 mM): 46.6 mM
DS·Clo (Dixon slope times [Clo]) (exp 61a, pHo 11.6, Clo 27.5 mM): 0.2089
Dixon slope (DS) for Io inhibition of Cl- exchange (exp 61a, pHo 11.6, Clo 27.5 mM): 0.0076
High/low: DS·Clo at the highest [Clo] divided by that at the given [Clo] (exp 61a, pHo 11.6, Clo 27.5 mM): 0.77
DS·Clo (Dixon slope times [Clo]) (exp 61a, pHo 11.6, Clo I10 mM): 0.1613
Dixon slope (DS) for Io inhibition of Cl- exchange (exp 61a, pHo 11.6, Clo I10 mM): 0.00147
ID50 for iodide in the medium with low Cl- concentration (exp 64, pHo 8.66, CHES, Cli 138 mM, low Clo 0.9 mM): 3.06 mM
ID50 for iodide in the medium with low Cl- concentration (exp 64, pHo 9.9, CHES, Cli 138 mM, low Clo 2.2 mM): 7.48 mM
ID50 for iodide in the medium with low Cl- concentration (exp 64a, pHo 8.66, CHES, Cli 137 mM, low Clo 0.9 mM): 2.24 mM
ID50 for iodide in the medium with low Cl- concentration (exp 64a, pHo 9.9, CHES, Cli 137 mM, low Clo 2.2 mM): 7.57 mM
ID50 for iodide in the medium with low Cl- concentration (exp 67, pHo 8.5, CHES, Cli 144 mM, low Clo 0.6 mM): 2.18 mM
ID50 for iodide in the medium with low Cl- concentration (exp 70, pHo 7.2, Hepes, Cli 147 mM, low Clo 0.6 mM): 1.47 mM
DS·Clo (Dixon slope times [Clo]) (exp 70, pHo 7.2, Clo 0.59 mM): 0.0584
Dixon slope (DS) for Io inhibition of Cl- exchange (exp 70, pHo 7.2, Clo 0.59 mM): 0.0996
High/low: DS·Clo at the highest [Clo] divided by that at the given [Clo] (exp 70, pHo 7.2, Clo 0.59 mM): 5.52
DS·Clo (Dixon slope times [Clo]) (exp 70, pHo 7.2, Clo 110 mM): 0.322
Dixon slope (DS) for Io inhibition of Cl- exchange (exp 70, pHo 7.2, Clo 110 mM): 0.00293
ID50 for iodide in the medium with low Cl- concentration (exp 70, pHo 8.5, CHES, Cli 147 mM, low Clo 0.6 mM): 1.82 mM
ID50 for iodide in the medium with low Cl- concentration (exp 72, pHo 8.0, Hepes, Cli 129 mM, low Clo 0.9 mM): 1.82 mM
ID50 for iodide in the medium with low Cl- concentration (exp 72, pHo 9.2, CHES, Cli 129 mM, low Clo 0.9 mM): 4.19 mM
ID50 for iodide in the medium with low Cl- concentration (exp 74, pHo 8.5, CHES, Cli 156 mM, low Clo 1.1 mM): 2.10 mM
ID50 for iodide in the medium with low Cl- concentration (exp 80, pHo 9.2, CHES, Cli 142 mM, low Clo 0.9 mM): 3.88 mM
ID50 for iodide in the medium with low Cl- concentration (exp 81, pHo 8.5, Hepes, Cli 142 mM, low Clo 0.6 mM): 2.31 mM
ID50 for iodide in the medium with low Cl- concentration (exp 81, pHo 10, CHES, Cli 142 mM, low Clo 1.7 mM): 7.81 mM
ID50 for iodide in the medium with low Cl- concentration (exp 82, pHo 10, CHES, Cli 138 mM, low Clo 1.7 mM): 9.85 mM
ID50 for iodide in the medium with low Cl- concentration (exp 82, pHo 10.6, CHES, Cli 138 mM, low Clo 1.7 mM): 19.8 mM
ID50 for iodide in the medium with low Cl- concentration (exp 83, pHo 10, CHES, Cli 129 mM, low Clo 1.7 mM): 6.58 mM
ID50 for iodide in the medium with low Cl- concentration (exp 84, pHo 8.0, Hepes, Cli 130 mM, low Clo 0.9 mM): 2.05 mM
